How the values were obtained:
[1] = biological target: 72 kDa type IV collagenase (Homo sapiens, UniProt P08253); assay: Inhibition of human recombinant MMP-2 CD at 10 uM using OMNIMMP as substrate incubated for 30 mins by fluorescence based analysis relative to control
[2] = Inhibition of VIM-2 (unknown origin) incubated for 15 mins by absorbance based microplate reader analysis; set-up: species or system Bacteria
[3] = Inhibition of GIM1 (unknown origin) incubated for 15 mins by absorbance based microplate reader analysis; set-up: species or system Bacteria
[4] = biological target: Carbonic anhydrase 2 (Homo sapiens) (UniProt P00918); assay: Inhibition of human CA2 at 10 uM using pNPA as substrate preincubated for 15 mins followed by substrate by absorbance based analysis relative to control
[5] = Selectivity ratio of Ki for human recombinant MMP-2 CD to Ki for C-terminal 6His-tagged full length NDM-1 (unknown origin)
Escherichia coli [6] = assay: Antibacterial activity against clinical isolate Escherichia coli K12 J53-ST10 684/18 expressing blaNDM-1 co-expressing blaCMY-2 and blaOXA-10 assessed as meropenem MIC at 36.44 uM measured after 20 hrs by broth microdilution assay (reference value: 12 mg/L); assay type: functional
Escherichia coli [7] = assay: Antibacterial activity against clinical isolate Escherichia coli K12 J53-ST10 684/18 expressing blaNDM-1 co-expressing blaCMY-2 and blaOXA-10 assessed as meropenem MIC at 72.88 uM measured after 20 hrs by broth microdilution assay (reference value: 24 mg/L); assay type: functional
Escherichia coli [8] = assay: Antibacterial activity against clinical isolate Escherichia coli K12 J53-ST10 696/17 expressing blaNDM-1 co-expressing blaCMY-4 assessed as meropenem MIC at 36.44 uM measured after 20 hrs by broth microdilution assay (reference value: 12 mg/L); assay type: functional
Escherichia coli [9] = assay: Antibacterial activity against clinical isolate Escherichia coli K12 J53-ST10 696/17 expressing blaNDM-1 co-expressing blaCMY-4 assessed as meropenem MIC at 72.88 uM measured after 20 hrs by broth microdilution assay (reference value: 24 mg/L); assay type: functional
Escherichia coli [10] = assay: Antibacterial activity against clinical isolate Escherichia coli K12 J53-ST10 699/15 expressing blaNDM-1 assessed as meropenem MIC at 36.44 uM measured after 20 hrs by broth microdilution assay (reference value: 12 mg/L); assay type: functional
Escherichia coli [11] = assay: Antibacterial activity against clinical isolate Escherichia coli K12 J53-ST10 699/15 expressing blaNDM-1 assessed as meropenem MIC at 72.88 uM measured after 20 hrs by broth microdilution assay (reference value: 24 mg/L); assay type: functional
Acinetobacter baumannii [12] = assay: Antibacterial activity against clinical isolate Acinetobacter baumannii IC 19/09 expressing blaNDM-1 co-expressing blaOXA-64 assessed as meropenem MIC at 36.44 uM measured after 20 hrs by broth microdilution assay (reference value: 12 mg/L); assay type: functional
Acinetobacter baumannii [13] = assay: Antibacterial activity against clinical isolate Acinetobacter baumannii IC 19/09 expressing blaNDM-1 co-expressing blaOXA-64 assessed as meropenem MIC at 72.88 uM measured after 20 hrs by broth microdilution assay (reference value: 24 mg/L); assay type: functional
Escherichia coli [14] = assay: Antibacterial activity against clinical isolate Escherichia coli ST1012/10 expressing blaNDM-1 co-expressing blaTEM-1/blaCTX-M-15/blaOXA-1 and blaOXA-2 assessed as meropenem MIC at 72.88 uM measured after 20 hrs by broth microdilution assay (reference value: 24 mg/L); assay type: functional
Klebsiella pneumoniae [15] = assay: Antibacterial activity against clinical isolate Klebsiella pneumoniae ST1493/10 expressing blaNDM-1 co-expressing blaCMY-2like/blaTEM-1/blaCTX-M-15/blaSHV-28/blaOXA-1 and blaOXA-9 assessed as meropenem MIC at 72.88 uM measured after 20 hrs by broth microdilution assay (reference value: 24 mg/L); assay type: functional
Klebsiella pneumoniae [16] = assay: Antibacterial activity against clinical isolate Klebsiella pneumoniae 50/11 expressing blaNDM-1 co-expressing blaTEM-1/blaSHV-28/blaTEM-1/blaCTX-M-15 and blaOXA-1 assessed as meropenem MIC at 36.44 uM measured after 20 hrs by broth microdilution assay (reference value: 12 mg/L); assay type: functional
Klebsiella pneumoniae [17] = assay: Antibacterial activity against clinical isolate Klebsiella pneumoniae 50/20 expressing blaNDM-5 co-expressing blaTEM-1 and blaSHV-1 assessed as meropenem MIC at 36.44 uM measured after 20 hrs by broth microdilution assay (reference value: 12 mg/L); assay type: functional
Klebsiella pneumoniae [18] = assay: Antibacterial activity against clinical isolate Klebsiella pneumoniae 50/20 expressing blaNDM-5 co-expressing blaTEM-1 and blaSHV-1 assessed as meropenem MIC at 72.88 uM measured after 20 hrs by broth microdilution assay (reference value: 24 mg/L); assay type: functional
Escherichia coli [19] = assay: Antibacterial activity against clinical isolate Escherichia coli 371/12 expressing blaNDM-7 co-expressing blaCTX-M-15 and blaOXA-1 assessed as meropenem MIC at 72.88 uM measured after 20 hrs by broth microdilution assay (reference value: 24 mg/L); assay type: functional
Klebsiella pneumoniae [20] = assay: Antibacterial activity against clinical isolate Klebsiella pneumoniae ST23213/19 expressing blaNDM-1 co-expressing blaOXA-48/blaSHV-11/blaCTX-M-15 and blaOXA-1 assessed as meropenem MIC at 72.88 uM measured after 20 hrs by broth microdilution assay (reference value: 24 mg/L); assay type: functional
Klebsiella pneumoniae [21] = assay: Antibacterial activity against clinical isolate Klebsiella pneumoniae 62/07 expressing blaVIM-19 co-expressing blaSHV-1/blaCTX-M-14 and blaCMY-4 assessed as meropenem MIC at 36.44 uM measured after 20 hrs by broth microdilution assay (reference value: 12 mg/L); assay type: functional
Klebsiella pneumoniae [22] = assay: Antibacterial activity against clinical isolate Klebsiella pneumoniae 62/07 expressing blaVIM-19 co-expressing blaSHV-1/blaCTX-M-14 and blaCMY-4 assessed as meropenem MIC at 72.88 uM measured after 20 hrs by broth microdilution assay (reference value: 24 mg/L); assay type: functional
[23] = biological target: T1, Metallo-beta-lactamase type 2 (Bacteria, UniProt C7C422)
T1 sequence (C7C422 whole entry): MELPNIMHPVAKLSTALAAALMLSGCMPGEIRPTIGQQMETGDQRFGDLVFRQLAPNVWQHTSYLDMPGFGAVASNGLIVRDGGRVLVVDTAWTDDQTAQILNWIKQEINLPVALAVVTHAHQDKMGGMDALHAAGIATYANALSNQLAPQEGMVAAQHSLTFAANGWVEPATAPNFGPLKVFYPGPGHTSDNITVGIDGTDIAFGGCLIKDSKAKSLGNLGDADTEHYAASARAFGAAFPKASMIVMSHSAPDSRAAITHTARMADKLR
Description: Inhibition of C-terminal 6His-tagged full length NDM-1 (unknown origin) expressed in Escherichia coli BL21-DE3 using nitrocefin as substrate incubated for 15 mins followed by substrate addition by absorbance based microplate reader analysis

[24] = biological target: T1, Metallo-beta-lactamase type 2; remark: listed apart in the source
Description: Binding affinity to C-terminal 6His-tagged full length biotin-labeled NDM-1 (unknown origin) expressed in Escherichia coli BL21-DE3 assessed as dissociation constant by BLI assay

[25] = biological target: T1, Metallo-beta-lactamase type 2; remark: listed apart in the source
Description: Binding affinity to C-terminal 6His-tagged full length truncated NDM-1 (unknown origin) expressed in Escherichia coli BL21-DE3 assessed as dissociation constant by isothermal titration calorimetric analysis

[26] = biological target: Metallo-beta-lactamase type 2 (Bacteria) (UniProt C7C422)
Metallo-beta-lactamase type 2 (Bacteria), sequence (C7C422 whole entry): as above
Description: Binding affinity to C-terminal 6His-tagged full length truncated NDM-1 (unknown origin) expressed in Escherichia coli BL21-DE3 assessed as change in enthalpy by isothermal titration calorimetric analysis

[27] = biological target: Metallo-beta-lactamase type 2 (Bacteria) (UniProt C7C422); remark: listed apart in the source
Description: Binding affinity to C-terminal 6His-tagged full length truncated NDM-1 (unknown origin) expressed in Escherichia coli BL21-DE3 assessed as change in Gibbs free energy by isothermal titration calorimetric analysis

[28] = biological target: Metallo-beta-lactamase type 2 (Bacteria) (UniProt C7C422); remark: listed apart in the source
Description: Binding affinity to C-terminal 6His-tagged full length truncated NDM-1 (unknown origin) expressed in Escherichia coli BL21-DE3 assessed as change in entropy by isothermal titration calorimetric analysis

[29] = biological target: Metallo-beta-lactamase type 2 (Bacteria) (UniProt C7C422); remark: listed apart in the source
Description: Binding affinity to C-terminal 6His-tagged full length truncated NDM-1 (unknown origin) expressed in Escherichia coli BL21-DE3 assessed as change in enthalpy in presence of zinc sulfate by isothermal titration calorimetric analysis

[30] = biological target: Metallo-beta-lactamase type 2 (Bacteria) (UniProt C7C422); remark: listed apart in the source
Description: Binding affinity to C-terminal 6His-tagged full length truncated NDM-1 (unknown origin) expressed in Escherichia coli BL21-DE3 assessed as change in enthalpy in presence of EDTA by isothermal titration calorimetric analysis

72 kDa type IV collagenase, sequence (P08253 110-660 limits assumed): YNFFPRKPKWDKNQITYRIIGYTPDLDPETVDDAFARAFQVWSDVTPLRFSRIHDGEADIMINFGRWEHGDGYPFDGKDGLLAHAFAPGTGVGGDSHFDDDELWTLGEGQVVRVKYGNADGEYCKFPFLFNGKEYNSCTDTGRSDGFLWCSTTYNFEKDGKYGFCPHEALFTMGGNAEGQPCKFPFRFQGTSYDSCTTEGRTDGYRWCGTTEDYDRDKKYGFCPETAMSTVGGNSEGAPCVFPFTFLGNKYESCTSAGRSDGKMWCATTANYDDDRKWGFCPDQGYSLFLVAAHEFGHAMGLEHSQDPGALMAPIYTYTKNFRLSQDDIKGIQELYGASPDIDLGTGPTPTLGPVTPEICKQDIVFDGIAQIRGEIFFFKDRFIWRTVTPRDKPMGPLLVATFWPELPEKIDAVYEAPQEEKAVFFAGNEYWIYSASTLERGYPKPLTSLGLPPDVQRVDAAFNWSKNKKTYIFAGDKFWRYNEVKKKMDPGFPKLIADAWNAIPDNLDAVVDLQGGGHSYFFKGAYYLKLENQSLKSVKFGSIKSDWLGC

SMILES: O=C(O)c1ccc2cccc(NS(=O)(=O)c3ccccn3)c2n1
- inhibition [1]: > 90%
- IC50 [2]: 240 nM
- IC50 [3]: 650 nM
- inhibition [4]: < 5%
- Ratio Ki [5]: 40
- MIC (Escherichia coli [6]): ≤ 0.125 µg/mL
- MIC (Escherichia coli [7]): ≤ 0.125 µg/mL
- MIC (Escherichia coli [8]): ≤ 0.125 µg/mL
- MIC (Escherichia coli [9]): ≤ 0.125 µg/mL
- MIC (Escherichia coli [10]): 0.5 µg/mL
- MIC (Escherichia coli [11]): ≤ 0.125 µg/mL
- MIC (Acinetobacter baumannii [12]): 4 µg/mL
- MIC (Acinetobacter baumannii [13]): 1 µg/mL
- MIC (Escherichia coli [14]): ≤ 0.125 µg/mL
- MIC (Klebsiella pneumoniae [15]): 1 µg/mL
- MIC (Klebsiella pneumoniae [16]): ≤ 0.125 µg/mL
- MIC (Klebsiella pneumoniae [17]): 0.5 µg/mL
- MIC (Klebsiella pneumoniae [18]): ≤ 0.125 µg/mL
- MIC (Escherichia coli [19]): ≤ 0.125 µg/mL
- MIC (Klebsiella pneumoniae [20]): 16 µg/mL
- MIC (Klebsiella pneumoniae [21]): 2 µg/mL
- MIC (Klebsiella pneumoniae [22]): 0.25 µg/mL
- IC50 [23]: 290 nM
- Kd [24]: 14.1 µM
- Kd [25]: 105 nM
- deltaH [26]: -27.6 kJ/mol
- deltaG [27]: -39.9 kJ/mol
- -TdeltaS [28]: -12.2 kJ/mol
- deltaH [29]: -111 kJ/mol
- deltaH [30]: -40 kJ/mol

From ChEMBL document CHEMBL5365420, “Kinetics, Thermodynamics, and Structural Effects of Quinoline-2-Carboxylates, Zinc-Binding Inhibitors of New Delhi Metallo-β-lactamase-1 Re-sensitizing Multidrug-Resistant Bacteria for Carbapenems” (J Med Chem, 2023)
